Data on 2 sequences can be found in patent publication US10578610B2, “Peptide regulators of mitochondrial fusion and methods of use” (priority 2016, dated 2020).

One assay has as its system WT MEFs. The format is cell-based, murine. As to conditions: for mitochondrial aspect ratio (effect of TAT fusion construct): WT MEFs, varying concentrations / time course; for EC50: mitochondrial aspect ratio dose response; for EC50 / half-time for mitochondrial shape change: MEFs; for half-time for mitochondrial shape change: time course. The procedure:
(§1) MEFs or neurons were grown on chamber slides and infected with recombinant adenoviri for 48-72 hours unless otherwise indicated. MEFs were stained with MitoTracker Green (200 nM, Invitrogen M7514) and Blue Hoechst (10 mg/ml, Invitrogen H3570), with or without tetramethylrhodamine ethyl ester (TMRE; 200 nM, Invitrogen T-669). Neuronal mitochondria were labeled with adenoviral-expressed mitoGFP plus TMRE, or with adeno-mitoDsRed for time-lapse studies. Cover slips were loaded onto a chamber (Warner instrument, RC-40LP) in modified Krebs-Henseleit buffer (138 mM NaCl, 3.7 mM KCl, 1.2 mM KH2PO4, 15 mM Glucose, 20 mM HEPES and 1 mM CaCl2) at room temperature and visualized on a Nikon Ti Confocal microscope equipped with a 60×1.3 NA oil immersion objective. For mitophagy studies MEFs were stained with MitoTracker Green and infected with adeno-mcherry Parkin or stained with LysoTracker Deep Red (50 nM, Invitrogen L-7528); carbonylcyanide p-trifluoromethoxyphenylhydrazone (FCCP, 10 μM for 1 hour) was applied as a positive control. Mitochondrial fusion was measured at 2 and 6 hours after PEG-mediated cell fusion of MEFs treated 48 hours previously with adeno-mitoGFP or adeno-mitoDsRed (Chen et al., 2005, J Biol Chem, 280:26185-26192). Laser confocal fluorescence was excited with 561 nm (MitoTracker Green, GFP, FITC), 637 nm (TMRE, LysoTracker Red, mcherry-Parkin, MitoTracker Orange) or 408 nm (Blue Hoechst) laser diodes. Image analysis—Mitochondrial aspect ratio was calculated using automated edge detection and Image J software (Song et al., 2015, Cell Metab, 21:273-285). Mitochondrial depolarization was calculated as % of green mitochondria visualized on MitoTracker Green and TMRE merged images, expressed as green/(green+yellow mitochondria)×100. Parkin aggregation was calculated as % of cells with mitochondrial clumping of mcherry-Parkin (Song et al., 2015, Cell Metab, 21:273-285). Lysosomal engulfment of mitochondria was identified by colocalization of LysoTracker Red and MitoTracker Green (Song et al., 2015, Cell Metab, 21:273-285).
TAT47-57 is a well-characterized “carrier” peptide able to promote active cellular peptide uptake. Specifically, a linear peptide was constructed in which the hMfn2 modulatory peptide was linked by a peptide bond at its C-terminus to a Gly-Gly dipeptide linker whose C-terminus was linked by a peptide bond to the TAT47-57 peptide having the sequence YGRKKRRQRRR (SEQ ID NO:25). The resultant linear fusion-promoting peptide conjugate comprises the sequence […] (SEQ ID NO:23). The fusion-inhibiting linear peptide has the sequence […] (SEQ ID NO:24). Except for dose-response studies, stock concentrations of TAT-minipeptides in sterile water were applied to cultured MEFs at a dilution factor of 1:2000 to achieve final concentrations of 1 or 5 μM.
The functional consequences of the Mfn2 HR1-derived peptides were defined after synthesizing them as C-terminal TAT47-57 conjugates to promote active cellular uptake. Mitochondrial fusion can be detected by mixing of organellar contents (Chen et al., 2005, J Biol Chem, 280:26185-26192). […] (FIG. 8A, scale bar is 20 microns). Mitochondrial aspect ratio changed in parallel with mitochondrial mixing (FIG. 8B).
Experiments were performed with these shortened variants fused to a carrier peptide via a linker according to the methods described in Example 5 above. Wildtype MEFs were treated with varying concentrations of peptide fusion constructs described in Table 4 and mitochondrial aspect ratios determined. A dose response curve for TetherX-N and -C variants are shown in FIG. 17A (squares are data for TetherX-N and circles are for TetherX-C). The dose response curve for GoFuse-N and -C variants are shown in FIG. 17B (squares are for GoFuse-N and circles are for GoFuse-C).

Another assay deals with MEFs. The assay can be described thus: Mitochondrial fusion by mixing of organellar contents after PEG-mediated cell fusion. The format is cell-based, murine. As to conditions: 1 μM for 6 hours. The procedure: as §1, with “Cover slips were loaded onto a chamber (Warner instrument, RC-40LP) in modified Krebs-Henseleit buffer (138 mM NaCl, 3.7 mM KCl, 1.2 mM KH2PO4, 15 mM Glucose, 20 mM HEPES and 1 mM CaCl2) at room temperature and visualized on a Nikon Ti Confocal microscope equipped with a 60×1.3 NA oil immersion objective. For mitophagy studies MEFs were stained with MitoTracker Green and infected with adeno-mcherry Parkin or stained with LysoTracker Deep Red (50 nM, Invitrogen L-7528); carbonylcyanide p-trifluoromethoxyphenylhydrazone (FCCP, 10 μM for 1 hour) was applied as a positive control.” left out, “Lysosomal engulfment of mitochondria was identified by colocalization of LysoTracker Red and MitoTracker Green (Song et al., 2015, Cell Metab, 21:273-285).” left out

The test system of a further assay is Opa1 and Drp1. The experiment in a line: Immunoblot analysis of mitochondrial dynamics proteins in MEFs. The format is cell-based, murine. As to conditions: immunoblot 4 hours after application to MEFs; data not shown. (Immunoblotting shows a protein as a band on a membrane.)
The target of another assay is T1, human Mfn2 (Homo sapiens, UniProt O95140).
T1 sequence (O95140 1-757): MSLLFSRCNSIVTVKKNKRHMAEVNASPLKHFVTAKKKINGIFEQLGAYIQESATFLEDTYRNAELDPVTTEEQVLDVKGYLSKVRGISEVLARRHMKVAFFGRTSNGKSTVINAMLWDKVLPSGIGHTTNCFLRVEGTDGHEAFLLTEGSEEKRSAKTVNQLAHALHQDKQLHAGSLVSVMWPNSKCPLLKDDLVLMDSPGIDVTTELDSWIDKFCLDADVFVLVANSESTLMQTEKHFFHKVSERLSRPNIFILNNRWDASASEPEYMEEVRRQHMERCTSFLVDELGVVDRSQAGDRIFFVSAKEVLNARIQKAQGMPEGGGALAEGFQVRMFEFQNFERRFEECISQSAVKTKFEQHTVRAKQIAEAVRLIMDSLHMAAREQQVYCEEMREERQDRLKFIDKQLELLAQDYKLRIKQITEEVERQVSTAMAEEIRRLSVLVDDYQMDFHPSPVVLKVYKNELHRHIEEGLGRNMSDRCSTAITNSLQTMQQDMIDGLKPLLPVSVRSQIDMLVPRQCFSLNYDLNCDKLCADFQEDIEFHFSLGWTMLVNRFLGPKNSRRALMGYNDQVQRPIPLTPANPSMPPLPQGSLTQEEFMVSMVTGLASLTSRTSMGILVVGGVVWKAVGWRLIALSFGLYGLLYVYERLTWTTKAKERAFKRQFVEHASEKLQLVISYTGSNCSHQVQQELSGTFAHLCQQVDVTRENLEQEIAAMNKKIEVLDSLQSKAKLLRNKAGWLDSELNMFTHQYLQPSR
The experiment in a line: Carboxypeptidase protection assay on mitochondrial membranes. The format is biochemical. Also noted: from tissue; host or cells: mitochondrial membranes of transgenic mouse hearts overexpressing human Mfn2. As to conditions: 200 ng/ml carboxypeptidases A and B; mouse heart mitochondrial membranes overexpressing human Mfn2. The procedure: Mitochondrial membranes were prepared (Song et al., 2015, Cell Metab, 21:273-285) from mouse hearts overexpressing human Mfn2 (Gong et al., 2015, Science, 350:aad2459) and digested with 200 ng/ml each carboxypeptidases A and B (Sigma-Aldrich) for increasing times at room temperature, followed by immunoblotting using an antibody (Abcam ab56889) specific to hMfn2 HR2.

Like-named read-outs stand apart in the source and are kept apart here. Ends that are not written are not given here.

For orientation: EC50 means the concentration that produces a half-maximal response. “QDRLKFIDKQGELLAQDYKLRGGYGRKKRRQRRR [TAT-398-418Gly]”: in the assay with WT MEFs, the “mitochondrial aspect ratio (effect of TAT fusion construct)” value is given as “decreased mitochondrial aspect ratio” and the “half-time for mitochondrial shape change” value is “approximately 2 hours”. Also, the EC50 in the assay with WT MEFs (read-out: EC50 for mitochondrial shortening (suppressed fusion)) was 250 ± 90 nM. In the assay on MEFs, the “rate of mitochondrial content mixing (mitochondrial fusion)” value is listed as “completely suppressed mitochondrial fusion”. Besides, the “abundance of Opa1 and Drp1” value in the assay with Opa1 and Drp1 is on record as “without altering Mfn2 GTPase activity or influencing the abundance”. Also, on human Mfn2, the “carboxyl terminal-directed proteolytic digestion of Mfn2 (exposure of C-terminal HR2 domain)” value is “had the opposite effect”.
As to “QIAEAVRGIMDSLHMAARGGYGRKKRRQRRR [TAT-367-384Gly]”, in the assay with WT MEFs, the “mitochondrial aspect ratio (effect of TAT fusion construct)” value is recorded as “increased the mitochondrial aspect ratio” and the “half-time for mitochondrial shape change” value was “approximately 2 hours”. For the same sequence, the EC50 with WT MEFs (read-out: EC50 for mitochondrial elongation (enhanced fusion)) was 280 ± 90 nM. For the same sequence, the “rate of mitochondrial content mixing (mitochondrial fusion)” value in the assay on MEFs was “more than doubled”. The “abundance of Opa1 and Drp1” value in the assay on Opa1 and Drp1 is recorded as “without altering Mfn2 GTPase activity or influencing the abundance”. In addition, the “carboxyl terminal-directed proteolytic digestion of Mfn2 (exposure of C-terminal HR2 domain)” value on human Mfn2 was “accelerated carboxyl terminal-directed proteolytic digestion of Mfn2”.
